Test results as given in patent US12503436B2, “Compounds and compositions for treating conditions associated with STING activity” (NOVARTIS PHARMA AG, priority 2021, dated 2025).

Biological target: STING (Homo sapiens, UniProt Q86WV6, G230A/H232R/R293Q/R71H)
Assay: STING reporter assay in THP1-Dual KO-IFNAR2 cells (2′3′cGAMP stimulation, luciferase reporter)
Assay type: cell-based
Settings: 15 μM 2′3′cGAMP stimulation, 24 h, read-out: Pharmaron, THP1_IFNAR2 STING 24 h Luci Normalized: GeoMean EC50
Outline: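 THP1-Dual KO-IFNAR2 cells (2×10E6 cells/mL) with compounds at 0.0017-100 μM final, stimulated with 15 μM final 2′3′cGAMP delivered by Lipofectamine 2000; 24 h at 37 °C. Luciferase in supernatant read with QUANTI-Luc Plus; EC50 derived from luminescence.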

Sequence of STING (Q86WV6 whole entry R71H/G230A/H232R/R293Q): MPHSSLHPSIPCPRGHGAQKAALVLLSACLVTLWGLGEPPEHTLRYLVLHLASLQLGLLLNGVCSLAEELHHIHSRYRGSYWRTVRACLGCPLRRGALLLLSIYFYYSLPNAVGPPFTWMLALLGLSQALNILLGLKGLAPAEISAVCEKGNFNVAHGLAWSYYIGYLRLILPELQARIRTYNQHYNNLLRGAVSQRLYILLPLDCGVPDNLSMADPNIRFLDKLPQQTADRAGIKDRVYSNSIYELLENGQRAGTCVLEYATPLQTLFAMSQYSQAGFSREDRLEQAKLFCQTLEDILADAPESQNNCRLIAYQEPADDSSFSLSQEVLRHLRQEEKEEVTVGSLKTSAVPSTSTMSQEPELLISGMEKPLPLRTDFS

EC50 [µM] | SMILES
0.2 to 1 | CC1(C(=O)Nc2c[nH]c3ccc(OCCc4ccc(C(F)(F)F)cc4)cc23)CCOC1 (stereo not drawn) [Compound 189, 3-methyl-N-(5-(4-(trifluoromethyl)phenethoxy)-1H-indol-3-yl)tetrahydrofuran-3-carboxamide]
0.2 to 1 | C[C@]1(C(=O)Nc2c[nH]c3ccc(OCC[C@@H]4C[C@@H]5CN(CC(F)(F)F)C[C@@H]5C4)cc23)CC[C@@H](O)CC1 [Compound 505, (1s,4S)-4-hydroxy-1-methyl-N-(5-(2-((3aR,5r,6aS)-2-(2,2,2-trifluoroethyl)octahydrocyclopenta[c]pyrrol-5-yl)ethoxy)-1H-indol-3-yl)cyclohexane-1-carboxamide]
5 to 100 | CC(=O)Nc1c[nH]c2ccc(CCOc3ccc4ncccc4c3)cc12 [Compound 526, N-(5-(2-(quinolin-6-yloxy)ethyl)-1H-indol-3-yl)acetamide]
0.04 to 0.2 | CC1(C(=O)Nc2c[nH]c3ccc(OCC[C@@H]4C[C@@H]5CN(CC(F)(F)F)C[C@@H]5C4)cc23)CCOCC1 [Compound 161, 4-methyl-N-(5-(2-((3aR,5r,6aS)-2-(2,2,2-trifluoroethyl)octahydrocyclopenta[c]pyrrol-5-yl)ethoxy)-1H-indol-3-yl)tetrahydro-2H-pyran-4-carboxamide]
1 to 5 | C[C@]1(C(=O)Nc2c[nH]c3ccc(OCc4ccc(C(F)(F)F)cc4)cc23)C[C@H](O)C1 [Compound 415, trans-3-hydroxy-1-methyl-N-(5-((4-(trifluoromethyl)benzyl)oxy)-1H-indol-3-yl)cyclobutane-1-carboxamide]
0.04 to 0.2 | COCCCC(=O)Nc1c[nH]c2ccc(OCC[C@@H]3C[C@@H]4CN(CC(F)(F)F)C[C@@H]4C3)cc12 [Compound 520, 4-methoxy-N-(5-(2-((3aR,5r,6aS)-2-(2,2,2-trifluoroethyl)octahydrocyclopenta[c]pyrrol-5-yl)ethoxy)-1H-indol-3-yl)butanamide]

Continued, molecule first:

SMILES | EC50 [µM]
CC(=O)Nc1c[nH]c2ccc(CO[C@H]3C[C@H](c4ccc(C(F)(F)F)cc4)C3)cc12 [Compound 482, N-(5-((trans-3-(4-(trifluoromethyl)phenyl)cyclobutoxy)methyl)-1H-indol-3-yl)acetamide] | 0.04 to 0.2
O=C(Nc1c[nH]c2ccc(C(O)CCc3ccc(C(F)(F)F)cc3)cc12)C1CC1 (stereo not drawn) [Compound 209, N-(5-(1-hydroxy-3-(4-(trifluoromethyl)phenyl)propyl)-1H-indol-3-yl)cyclopropanecarboxamide] | 0.2 to 1
O=C(Nc1c[nH]c2ccc(O[C@H]3C[C@@H](c4ccc(C(F)(F)F)cc4)C3)cc12)C1(C(F)(F)F)CC1 [Compound 353, 1-(trifluoromethyl)-N-(5-(cis-3-(4-(trifluoromethyl)phenyl)cyclobutoxy)-1H-indol-3-yl)cyclopropane-1-carboxamide] | 0.2 to 1
N#C[C@H]1C[C@@H]1C(=O)Nc1c[nH]c2ccc(OCC[C@@H]3C[C@@H]4CN(CC(F)(F)F)C[C@@H]4C3)cc12 [Compound 340, (1S,2S)-2-cyano-N-(5-(2-((3aR,5r,6aS)-2-(2,2,2-trifluoroethyl)octahydrocyclopenta[c]pyrrol-5-yl)ethoxy)-1H-indol-3-yl)cyclopropane-1-carboxamide] | 1 to 5
CC1(C(=O)Nc2c[nH]c3ccc(O[C@H]4C[C@@H](c5ccc(C(F)(F)F)cc5)C4)cc23)CCNCC1 [Compound 529, 4-methyl-N-(5-(cis-3-(4-(trifluoromethyl)phenyl)cyclobutoxy)-1H-indol-3-yl)piperidine-4-carboxamide] | 5 to 100
C[C@]1(C(=O)Nc2c[nH]c3ccc(OCC[C@@H]4C[C@@H]5CN(CC(F)(F)F)C[C@@H]5C4)cc23)C[C@H](O)C1 [Compound 514, (1r,3R)-3-hydroxy-1-methyl-N-(5-(2-((3aR,5r,6aS)-2-(2,2,2-trifluoroethyl)octahydrocyclopenta[c]pyrrol-5-yl)ethoxy)-1H-indol-3-yl)cyclobutane-l-carboxamide] | 0.2 to 1
